{"source": "patent USRE39282E1", "about": "“Nucleic acid derivatives” (SmithKline Beecham Corporation, priority 1989, dated 2006)", "tested_on": "HIV-1 isolates", "test": "plaque-reduction assay with HT4-6C cell monolayers, HIV isolates from untreated and treated individuals", "type": "cell-based", "experimental": "The isolation of HIV-1 was achieved according to methodology reported by Larder et al. PBL samples were prepared by separation on “Ficoll-hypaque” gradients and co-cultivated directly with MT-2 cells (approximately 10^6 of each) after pre-stimulation for 24 to 72 hours with phytohaemag-glutinin (3 μg/ml). In many cases PBLs were cultured after long-term frozen storage. Cultures were maintained in RPMI 1640 supplemented with 10% fetal bovine serum, antibiotics, 2% interleukin-2, and polybrene (2 μg/ml) and expanded by addition of fresh MT-2 cells when a cytopathic effect was observed (between 4 and 14 days). HIV replication was confirmed by the detection of p24 antigen in culture supernatants (p24 antigen detection kit, Abbott, Chicago, Ill.). Virus were prepared from infected cultures and stored in aliquots at −70° C. […] (Larder, B. A., Darby, G., Richman, D., Science, 243, 1731, (1989)).", "note": "Where two headings read alike, the source gives them in different places."}
{"smiles": "Cc1cn([C@H]2C[C@H](N=[N+]=[N-])[C@@H](CO)O2)c(=O)[nH]c1=O", "note": "[zidovudine, 3′-Azido-3′-deoxythymidine]", "values": [{"measurement": "IC50", "setting": "Human immunodeficiency virus 1, read-out: ZIDOVUDINE SENSITIVITY (ID50 μM), HIV isolate A012D, 26 months of therapy, RT 67 Asn, 70 Arg, 215 Phe, 219 Gln", "result": 2, "unit": "µM"}, {"measurement": "IC50", "setting": "Human immunodeficiency virus 1, read-out: ZIDOVUDINE SENSITIVITY (ID50 μM), HIV isolate A018C, 14 months of therapy, RT 67 Asn, 70 Arg, 215 Tyr, 219 Gln", "result": 2.3, "unit": "µM"}, {"measurement": "IC50", "setting": "Human immunodeficiency virus 1, read-out: ZIDOVUDINE SENSITIVITY (ID50 μM), HIV isolate A036C, 11 months of therapy, RT 67 Asp, 70 Lys, 215 Tyr, 219 Lys", "result": 0.6, "unit": "µM"}, {"measurement": "IC50", "setting": "Human immunodeficiency virus 1, read-out: ZIDOVUDINE SENSITIVITY (ID50 μM), HIV isolate A036D, 20 months of therapy, RT 67 Asn, 70 Arg, 215 Tyr, 219 Lys", "result": 5.6, "unit": "µM"}, {"measurement": "IC50", "setting": "Human immunodeficiency virus 1, read-out: ZIDOVUDINE SENSITIVITY (ID50 μM), HIV isolate P022C, 16 months of therapy, RT 67 Asn, 70 Arg, 215 Phe, 219 Gln", "result": 1.4, "unit": "µM"}, {"measurement": "IC50", "setting": "Human immunodeficiency virus 1, read-out: ZIDOVUDINE SENSITIVITY (ID50 μM), HIV isolate P035A, 6 months of therapy, RT 67 Asp, 70 Lys, 215 Tyr, 219 Lys", "result": 0.56, "unit": "µM"}, {"measurement": "IC50", "setting": "Human immunodeficiency virus 1, read-out: ZIDOVUDINE SENSITIVITY (Mean ID50, μM), HIV isolate A012D, Table 2", "result": 2.56, "unit": "µM"}, {"measurement": "IC50", "setting": "Human immunodeficiency virus 1, read-out: Zidovudine Sensitivity (ID50 μM), HIV isolate A001A, 0 months of therapy, RT sequence wild type, Table 3", "result": 0.03, "unit": "µM"}, {"measurement": "IC50", "setting": "Human immunodeficiency virus 1, read-out: Zidovudine Sensitivity (ID50 μM), HIV isolate A001B, 12 months of therapy, RT sequence R70 and N67 R70 Q219, Table 3", "result": 0.11, "unit": "µM"}, {"measurement": "IC50", "setting": "Human immunodeficiency virus 1, read-out: Zidovudine Sensitivity (ID50 μM), HIV isolate A012D, 26 months of therapy, RT N67 R70 F215 Q219, Table 3", "result": 2, "unit": "µM"}, {"measurement": "IC50", "setting": "Human immunodeficiency virus 1, read-out: Zidovudine Sensitivity (ID50 μM), HIV isolate A018C, 14 months of therapy, RT N67 R70 Y215 Q219, Table 3", "result": 4, "unit": "µM"}, {"measurement": "IC50", "setting": "Human immunodeficiency virus 1, read-out: Zidovudine Sensitivity (ID50 μM), HIV isolate A025A, 24 months of therapy, RT R70, Table 3", "result": 0.11, "unit": "µM"}, {"measurement": "IC50", "setting": "Human immunodeficiency virus 1, read-out: Zidovudine Sensitivity (ID50 μM), HIV isolate A036C, 11 months of therapy, RT Y215, Table 3", "result": 0.67, "unit": "µM"}, {"measurement": "IC50", "setting": "Human immunodeficiency virus 1, read-out: Zidovudine Sensitivity (ID50 μM), HIV isolate A036D, 20 months of therapy, RT N67 R70 Y215, Table 3", "result": 5.6, "unit": "µM"}]}
